Experimental data: US9339531B2, “Recognition of CYP2E1 epitopes” (The Johns Hopkins University, priority 2009, dated 2016)
Read-outs that look alike come from different tables or passages of the source. Peptide text beside a SMILES is read from it.

System: splenocytes from TFA-S100 immunized BALB/c mice
Conditions: for activation of T cells (splenocyte proliferation, 3H thymidine incorporation / proliferation index): 0.1, 0.5 or 1 ug/mL epitope, splenocytes two weeks after TFA-S100 immunization; for recognition by DILI-specific T cells and B cells: summary of mouse splenocyte proliferation and human serum ELISA
Method: FIG. 4. Splenocyte proliferation assays with candidate CYP2E1 epitopes.
As described above, BALB/c mice were immunized with TFA-S100. Splenocytes from BALB/c mice immunized with S100 in CFA plus PT or CFA and PT alone were used as controls. Splenocyte isolation was performed using basic immunological techniques. Briefly, spleens were harvested two weeks after immunization. Spleens were mashed between two frosted glass slides, and tissue debris was removed by filtering the sample through a 70 μm cell strainer. The remaining cells were washed with sterile phosphate buffered saline/2% fetal calf serum (PBS/2% FCS) and centrifuged at 1500 rpm for 10 minutes using a refrigerated desktop centrifuge. Red cells were lysed using ACK lysing buffer. The remaining cells were washed with RPMI-10% HEPES and filtered through a 70 μm cell strainer. The splenocytes were stored in RPMI complete media with 10% FCS (RPMI-10) at a final concentration of 2.5 million cells per 1 mL of media.
For the proliferation assays, 2.5×10^5 splenocytes (100 μl) were added to each well of a 96 well plate with 0.1 μg/mL, 0.5 μg/mL, or 1 μg/mL of a candidate epitope. As controls, media or concanavalin A (Con A) were also tested in the proliferation assays. Plates were incubated for 3 days at 37° C., 5% CO2, 95% air (humidified). Six to 18 hours prior to the 72 hour time point, the splenocytes were pulsed with 1 μCi/well ^3H thymidine (0.25 mCi/0.25 ml stock). Specifically, a 1:10 dilution (0.1 mCi/ml) of the ^3H thymidine stock solution is made by adding 200 μl of ^3H thymidine stock solution to 1800 μl of sterile RPMI. 10 μl (1 μCi) of diluted ^3H thymidine was pipetted into each well. The cells were incubated for […]. After incubation, cells were placed in −20° C. for up to 45 minutes to stop the incorporation of ^3H thymidine into proliferating cells. The splenocytes were analyzed and ^3H incorporation, an indicator of cellular proliferation, was measured.

Row | SMILES | activation of T cells (splenocyte proliferation, 3H thymidine incorporation / proliferation index) | recognition by DILI-specific T cells and B cells | recognition by DILI-specific T cells and B cells (listed as Gly^113-Leu^133)
1 | CC[C@H](C)[C@H](NC(=O)CN)C(=O)N[C@H](C(=O)N[C@@H](Cc1ccccc1)C(=O)N[C@@H](CC(N)=O)C(=O)N[C@@H](CC(N)=O)C(=O)NCC(=O)N1CCC[C@H]1C(=O)N[C@H](C(=O)N[C@@H](Cc1c[nH]c2ccccc12)C(=O)N[C@@H](CCCCN)C(=O)N[C@@H](CC(=O)O)C(=O)N[C@H](C(=O)N[C@@H](CCCNC(=N)N)C(=O)N[C@@H](CCCNC(=N)N)C(=O)N[C@@H](Cc1ccccc1)C(=O)N[C@@H](CO)C(=O)N[C@@H](CC(C)C)C(=O)N[C@H](C(=O)N[C@H](C(=O)N[C@@H](CC(C)C)C(=O)O)[C@@H](C)O)[C@@H](C)O)[C@@H](C)CC)[C@@H](C)O)[C@@H](C)CC [JHDN5] (H-GIIFNNGPTWKDIRRFSLTTL-OH) | able to activate T cells | only candidate epitope that is recognized by DILI-specific T cells | recognized by DILI-specific T cells and B cells
2 | CC(C)C[C@H](NC(=O)[C@H](CC(C)C)NC(=O)[C@H](CC(C)C)NC(=O)[C@H](Cc1ccccc1)NC(=O)[C@H](C)NC(=O)[C@H](C)NC(=O)[C@H](Cc1c[nH]c2ccccc12)NC(=O)[C@@H](NC(=O)[C@H](CC(C)C)NC(=O)[C@H](CC(C)C)NC(=O)[C@H](C)NC(=O)[C@@H](NC(=O)[C@@H](NC(=O)[C@@H](NC(=O)CNC(=O)[C@H](CC(C)C)NC(=O)[C@H](C)NC(=O)[C@@H](N)CO)C(C)C)[C@@H](C)O)C(C)C)C(C)C)C(=O)O [JHDN1] (H-SALGVTVALLVWAAFLLL-OH) | able to activate T cells |  | 
